{"source": "patent US6355695B1", "about": "“Substituted heterocycles” (Zeneca Limited, priority 1995, dated 2002)", "key": {"[1]": {"tested_on": "guinea pig trachea", "test": "Guinea Pig Assay (Test B): functional assay in guinea pig trachea, antagonism of agonist NKA or [b-ala^8]-NKA(4-10)", "type": "cell-based", "conditions": "Cavia porcellus, read-out: pKB in Test B (converted)", "source_text": "Guinea Pig Assay (Test B)"}, "[2]": {"molecular_target": "T1, human NK2 receptor expressed in Mouse Erythroleukemia (MEL) cells (Homo sapiens, UniProt P21452)", "T1 construct": "expressed in transfected cells; host or cells: Mouse Erythroleukemia (MEL) cells", "T1 sequence (P21452 1-398)": "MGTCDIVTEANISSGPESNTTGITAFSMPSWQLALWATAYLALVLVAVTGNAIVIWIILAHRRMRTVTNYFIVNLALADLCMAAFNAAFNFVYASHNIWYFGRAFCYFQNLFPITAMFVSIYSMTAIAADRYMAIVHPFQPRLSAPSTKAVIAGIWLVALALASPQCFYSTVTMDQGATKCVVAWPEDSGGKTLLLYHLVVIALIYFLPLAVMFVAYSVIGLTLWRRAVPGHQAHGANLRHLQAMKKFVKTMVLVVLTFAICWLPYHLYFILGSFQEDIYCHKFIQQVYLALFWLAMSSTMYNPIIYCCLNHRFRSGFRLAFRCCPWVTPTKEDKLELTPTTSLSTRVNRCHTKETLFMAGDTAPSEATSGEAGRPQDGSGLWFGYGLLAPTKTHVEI", "test": "Neurokinin A (NKA) Receptor-binding Assay (Test A)", "source_text": "Neurokinin A (NKA) Receptor-binding Assay (Test A)"}}, "note": "pKi: −log10 of the molar value. Counter-ions that a name gives are not always drawn."}
{"smiles": "O=C1NCCCN1C1CCN(CCC(Cn2cnnc2-c2ccccc2)c2ccc(Cl)c(Cl)c2)CC1", "note": "(centres unmarked) [Example 3, 1-[1-[3-(3,4-Dichlorophenyl)-4-(2-phenyl-1,3,4-triazol-1-yl)butyl]piperidin-4-yl]tetrahydropyrimidin-2-one hydrochloride]", "values": [{"measurement": "Kb", "setting": "[1]", "result": 2, "unit": "nM"}]}
{"smiles": "OC1(c2ccccc2)CCN(CCC(Cn2ccnc2-c2ccccc2)c2ccc(Cl)c(Cl)c2)CC1", "note": "(centres unmarked) [Example 2, 1-[3-(3,4-Dichlorophenyl)-4-(2-phenylimidazol-1-yl)butyl]-4-hydroxy-4-phenylpiperidine dihydrochloride]", "values": [{"measurement": "pKi", "setting": "[2]", "result": 7.64}]}
